Series [1] in a line: AUC in NCR nude mouse at 50 mg/kg, po measured upto 8 hrs by LC-MS/MS analysis. More on the design: dose 50 mg/kg, time < 8 hrs, route po. To be noted: in vivo. It is filed as ADME, organism-based.
A short description of series [2]: Oral bioavailability in NCR nude mouse at 50 mg/kg measured upto 8 hrs by LC-MS/MS analysis. To be noted: in vivo. It is filed as ADME, organism-based.
The test system of series [3] is Mus musculus. The series is described as follows: In vivo inhibition of PI3K in human HCC1954 cells xenografted in mouse at 50 mg/kg, po. In kind it is functional, organism-based. The following applies: TDE = time-dependent effect. Background: In xenograft studies the graft and the host belong to different species.
A further series concerns the target CaV1.2 (Homo sapiens, UniProt Q13936). The series is described as follows: Inhibition of human CaV1.2 at 10 uM relative to control.
The next series concerns the target Cytochrome P450 2D6 (Homo sapiens, UniProt P10635). The series is described as follows: Inhibition of CYP2D6 (unknown origin). In kind it is ADME.
Another series relates to HCC1954. The series is described as follows: Antitumor activity against human HCC1954 cells xenografted in mouse assessed as increase in cleaved PARP level at 50 mg/kg, po. In kind it is functional, organism-based.
The nature of series [4]: Clearance in Sprague-Dawley rat plasma at 1 mg/kg, iv measured upto 8 hrs by LC-MS/MS analysis. It is filed as ADME, organism-based.
A further series concerns the target T1, Cytochrome P450 2C8 (Homo sapiens, UniProt P10632).
T1 sequence (P10632 whole entry): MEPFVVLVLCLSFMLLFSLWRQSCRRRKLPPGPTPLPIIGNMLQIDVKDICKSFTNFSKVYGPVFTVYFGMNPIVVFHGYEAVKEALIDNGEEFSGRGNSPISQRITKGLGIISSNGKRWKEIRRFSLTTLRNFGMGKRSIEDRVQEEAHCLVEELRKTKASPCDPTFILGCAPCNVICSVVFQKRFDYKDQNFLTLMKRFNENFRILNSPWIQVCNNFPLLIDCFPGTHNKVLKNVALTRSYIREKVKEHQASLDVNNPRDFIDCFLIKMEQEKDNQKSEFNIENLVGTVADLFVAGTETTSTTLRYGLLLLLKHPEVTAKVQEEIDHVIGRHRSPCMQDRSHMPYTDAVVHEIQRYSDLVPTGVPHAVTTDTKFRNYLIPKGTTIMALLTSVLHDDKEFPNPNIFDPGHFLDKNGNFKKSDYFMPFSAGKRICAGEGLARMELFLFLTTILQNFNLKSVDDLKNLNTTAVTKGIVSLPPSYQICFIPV
The series is described as follows: Inhibition of CYP2C8 (unknown origin). It is filed as ADME.

Series [5] deals with Mus musculus. The series is described as follows: In vivo inhibition of PI3K in human HCC1954 cells xenografted in po dosed mouse. To be noted: DDE = dose-dependent effect. In kind it is functional, organism-based.
Series [6] is described as follows: Inhibition of PI3KC2b (unknown origin). Details: species or system Homo sapiens.
Series [7] in a line: Dissociation constant, pKa of the compound. It is filed as physicochemical.
The next series deals with Cytochrome P450 2C9 (Homo sapiens, UniProt P11712). The series is described as follows: Inhibition of CYP2C9 (unknown origin). In kind it is ADME.
Sequence of Cytochrome P450 2C9 (P11712 whole entry): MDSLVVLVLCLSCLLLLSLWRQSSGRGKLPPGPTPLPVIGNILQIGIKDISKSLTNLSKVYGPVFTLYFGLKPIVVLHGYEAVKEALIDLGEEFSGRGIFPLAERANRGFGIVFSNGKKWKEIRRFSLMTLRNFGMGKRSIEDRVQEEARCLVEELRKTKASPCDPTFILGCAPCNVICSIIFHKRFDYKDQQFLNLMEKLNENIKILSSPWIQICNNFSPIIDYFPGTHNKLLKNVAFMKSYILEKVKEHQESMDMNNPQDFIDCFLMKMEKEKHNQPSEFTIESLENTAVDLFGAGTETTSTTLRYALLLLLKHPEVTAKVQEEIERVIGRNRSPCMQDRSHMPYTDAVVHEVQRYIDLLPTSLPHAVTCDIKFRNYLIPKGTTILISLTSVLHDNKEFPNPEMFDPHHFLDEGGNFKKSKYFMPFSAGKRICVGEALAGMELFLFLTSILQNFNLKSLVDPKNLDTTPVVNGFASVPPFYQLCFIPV
Series [8] can be described thus: Plasma protein binding in human assessed as unbound fraction at 5 uM incubated for 4 hrs by equllibrium dialysis method. In kind it is ADME, cell-free.

Active and inactive are the calls of the source. The rule behind the calls is not given here.

Sequence of Cytochrome P450 2D6 (P10635 whole entry): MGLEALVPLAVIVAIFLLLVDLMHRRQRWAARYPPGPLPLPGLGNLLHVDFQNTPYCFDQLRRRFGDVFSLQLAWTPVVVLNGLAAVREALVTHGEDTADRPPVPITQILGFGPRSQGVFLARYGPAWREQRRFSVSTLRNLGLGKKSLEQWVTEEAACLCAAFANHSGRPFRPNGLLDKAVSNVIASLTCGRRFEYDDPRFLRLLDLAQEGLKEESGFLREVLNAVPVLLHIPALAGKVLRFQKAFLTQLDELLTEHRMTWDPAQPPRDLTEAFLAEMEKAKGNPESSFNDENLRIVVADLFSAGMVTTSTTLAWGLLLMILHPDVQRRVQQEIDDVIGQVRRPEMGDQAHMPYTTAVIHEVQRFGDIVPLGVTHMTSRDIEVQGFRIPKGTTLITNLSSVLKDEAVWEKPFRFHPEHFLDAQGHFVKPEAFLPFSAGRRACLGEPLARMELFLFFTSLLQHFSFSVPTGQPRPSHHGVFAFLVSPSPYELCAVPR
Sequence of CaV1.2 (Q13936 whole entry): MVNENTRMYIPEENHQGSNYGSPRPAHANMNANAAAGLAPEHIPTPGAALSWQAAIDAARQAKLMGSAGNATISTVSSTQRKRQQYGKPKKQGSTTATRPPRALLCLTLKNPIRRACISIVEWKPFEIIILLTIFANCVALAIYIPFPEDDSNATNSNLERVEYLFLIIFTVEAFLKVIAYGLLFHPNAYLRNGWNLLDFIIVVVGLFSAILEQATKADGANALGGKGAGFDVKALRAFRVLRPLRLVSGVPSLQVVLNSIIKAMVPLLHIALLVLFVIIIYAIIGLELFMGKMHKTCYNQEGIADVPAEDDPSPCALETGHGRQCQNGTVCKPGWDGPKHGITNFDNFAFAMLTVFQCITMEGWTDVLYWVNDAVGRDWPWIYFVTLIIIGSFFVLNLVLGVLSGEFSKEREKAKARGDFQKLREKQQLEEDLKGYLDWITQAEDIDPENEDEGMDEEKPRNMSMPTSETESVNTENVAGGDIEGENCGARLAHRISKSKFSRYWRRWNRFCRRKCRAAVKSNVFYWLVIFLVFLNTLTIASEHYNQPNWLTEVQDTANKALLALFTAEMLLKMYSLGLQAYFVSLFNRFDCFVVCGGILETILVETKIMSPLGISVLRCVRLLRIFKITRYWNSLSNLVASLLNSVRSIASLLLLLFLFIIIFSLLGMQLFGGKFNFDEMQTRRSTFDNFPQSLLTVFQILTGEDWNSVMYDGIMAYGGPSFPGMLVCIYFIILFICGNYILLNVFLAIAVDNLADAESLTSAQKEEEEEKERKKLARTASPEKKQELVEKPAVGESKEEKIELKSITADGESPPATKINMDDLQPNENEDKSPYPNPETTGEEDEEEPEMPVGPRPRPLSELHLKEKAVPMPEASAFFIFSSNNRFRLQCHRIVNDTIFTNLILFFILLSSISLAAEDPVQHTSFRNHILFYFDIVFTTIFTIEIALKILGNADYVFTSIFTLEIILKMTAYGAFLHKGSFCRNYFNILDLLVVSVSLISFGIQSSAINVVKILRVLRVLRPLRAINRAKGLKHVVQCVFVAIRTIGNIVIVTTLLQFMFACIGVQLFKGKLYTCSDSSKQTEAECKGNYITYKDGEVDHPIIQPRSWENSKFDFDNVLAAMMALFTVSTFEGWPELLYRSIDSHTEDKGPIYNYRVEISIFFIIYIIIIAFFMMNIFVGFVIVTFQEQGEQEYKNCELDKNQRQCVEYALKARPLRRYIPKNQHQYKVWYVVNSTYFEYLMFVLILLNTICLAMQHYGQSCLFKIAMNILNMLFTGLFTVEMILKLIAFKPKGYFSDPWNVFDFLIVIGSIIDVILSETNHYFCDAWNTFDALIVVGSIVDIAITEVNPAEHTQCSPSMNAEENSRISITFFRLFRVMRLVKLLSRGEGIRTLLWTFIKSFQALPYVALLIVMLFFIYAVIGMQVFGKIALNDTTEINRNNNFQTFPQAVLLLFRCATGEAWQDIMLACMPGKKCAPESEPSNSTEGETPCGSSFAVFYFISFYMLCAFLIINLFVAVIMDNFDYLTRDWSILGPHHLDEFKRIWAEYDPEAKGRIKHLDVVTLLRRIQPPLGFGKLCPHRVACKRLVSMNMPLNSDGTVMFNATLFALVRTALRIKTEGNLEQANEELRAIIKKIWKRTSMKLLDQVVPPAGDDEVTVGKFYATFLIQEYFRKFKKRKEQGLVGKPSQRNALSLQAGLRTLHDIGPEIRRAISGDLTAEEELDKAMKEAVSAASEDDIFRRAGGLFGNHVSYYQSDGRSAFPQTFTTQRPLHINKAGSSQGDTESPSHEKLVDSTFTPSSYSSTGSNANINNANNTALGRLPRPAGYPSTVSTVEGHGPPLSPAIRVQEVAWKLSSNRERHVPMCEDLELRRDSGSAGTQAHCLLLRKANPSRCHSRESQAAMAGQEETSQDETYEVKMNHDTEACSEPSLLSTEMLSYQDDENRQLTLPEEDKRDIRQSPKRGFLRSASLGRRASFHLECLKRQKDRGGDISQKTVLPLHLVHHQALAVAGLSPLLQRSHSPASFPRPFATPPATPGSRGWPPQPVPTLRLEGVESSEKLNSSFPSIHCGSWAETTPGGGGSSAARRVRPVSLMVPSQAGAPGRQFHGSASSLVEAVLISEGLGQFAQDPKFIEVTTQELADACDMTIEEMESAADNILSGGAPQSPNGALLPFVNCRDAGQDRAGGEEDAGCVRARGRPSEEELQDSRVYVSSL

A word on the AUC: it is concentration integrated over time. Broadly, the bioavailability is dose-corrected exposure relative to a reference, in per cent. Lower therefore signals poor availability. For orientation: inhibition means the percentage by which the read-out fell short of the control. What is called IC50 is the concentration that inhibits the measured activity by half. Read a high IC50 as weaker potency. What is called clearance is the volume of plasma or blood freed of the substance per unit of time. The low end stands for a low capacity for elimination, the high end for a high capacity for elimination. As usually defined, the pKa is the pH at which an ionisable group is half protonated. A word on the fraction unbound: it is free concentration divided by total concentration. In turn, `C[C@H](Nc1ccc2c(c1)OCCn1cc(N3C(=O)OC[C@H]3C(F)F)nc1-2)C(N)=O` [INAVOLISIB] registered an AUC at 8 h in [1] of 32.9 µM·h. The same compound came in with a bioavailability in series [2] of 59%. Besides, the inhibition result with Mus musculus [3] is “Tde”; with Mus musculus [5], “Dde”. For the same compound, the inhibition at 10 µM at CaV1.2 is below 20%. Besides, the IC50 is above 10 µM on Cytochrome P450 2D6, above 10 µM against Cytochrome P450 2C8, 0.056 µM in series [6] and above 10 µM against Cytochrome P450 2C9. Besides, in the series with HCC1954, the result was Active. The compound also showed a clearance in series [4] of 86 mL/min/kg. The same compound had a pKa in series [7] of 3.3. In addition, the fraction unbound at 4 h, 5 µM in [8] is 0.589.

Source of the values: ChEMBL document CHEMBL5150064 (J Med Chem, 2022).
